Measurements as given in paper PMC10698726 (Molecular Pharmaceutics, 2023).
pIC50: −log10 of the molar value. Where two headings read alike, the source gives them in different places.

Key:
OCT3 = molecular target: T1, OCT3 (Homo sapiens, UniProt O75751); test: Inhibition of model substrate uptake in OCT3-overexpressing HEK293 cells; format: cell-based
T1 construct: expressed in transfected cells; host or cells: HEK293
T1 sequence (O75751 1-556): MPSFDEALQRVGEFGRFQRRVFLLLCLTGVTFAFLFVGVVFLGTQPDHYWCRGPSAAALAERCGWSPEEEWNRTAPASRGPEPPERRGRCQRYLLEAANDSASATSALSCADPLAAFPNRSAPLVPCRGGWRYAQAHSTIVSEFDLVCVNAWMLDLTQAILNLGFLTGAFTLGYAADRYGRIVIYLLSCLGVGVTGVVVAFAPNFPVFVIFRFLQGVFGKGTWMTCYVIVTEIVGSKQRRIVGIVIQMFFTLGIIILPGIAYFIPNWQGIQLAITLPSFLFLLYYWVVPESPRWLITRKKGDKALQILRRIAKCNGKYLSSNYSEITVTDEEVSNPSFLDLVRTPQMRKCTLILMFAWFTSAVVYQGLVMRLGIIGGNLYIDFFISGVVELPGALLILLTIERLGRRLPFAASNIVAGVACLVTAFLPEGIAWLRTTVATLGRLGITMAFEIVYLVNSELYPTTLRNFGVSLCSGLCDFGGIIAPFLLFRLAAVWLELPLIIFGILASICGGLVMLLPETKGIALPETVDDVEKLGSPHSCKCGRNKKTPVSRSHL
Method in brief: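 Transporter-overexpressing HEK293 cells were incubated 5 min in HBSS+ with 2 μM model substrate, with or without 20 μM inhibitor or increasing inhibitor concentrations. Uptake was read as ASP^+ fluorescence or by LC–MS/MS, with empty-vector uptake subtracted. IC50 came from a Hill fit of activity versus log concentration.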

OCT2 = molecular target: T2, OCT2 (Homo sapiens, UniProt O15244); test: Inhibition of model substrate uptake in OCT2-overexpressing HEK293 cells; conditions: for inhibition at 5 min, 20 μM / (S,S)-Ethambutol inhibition [%] / ASP+ inhibition [%] / N-Ethyllidocaine inhibition [%]: OCT2, 20 μM inhibitor; for inhibition at 5 min, 20 μM / (S,S)-Ethambutol inhibition [%] / ASP+ inhibition [%] / N-Ethyllidocaine inhibition [%] / pIC50: 5 min; for pIC50: IC50, OCT2, Table S5, 2 μM ASP+ as model substrate
T2 sequence (O15244 1-555): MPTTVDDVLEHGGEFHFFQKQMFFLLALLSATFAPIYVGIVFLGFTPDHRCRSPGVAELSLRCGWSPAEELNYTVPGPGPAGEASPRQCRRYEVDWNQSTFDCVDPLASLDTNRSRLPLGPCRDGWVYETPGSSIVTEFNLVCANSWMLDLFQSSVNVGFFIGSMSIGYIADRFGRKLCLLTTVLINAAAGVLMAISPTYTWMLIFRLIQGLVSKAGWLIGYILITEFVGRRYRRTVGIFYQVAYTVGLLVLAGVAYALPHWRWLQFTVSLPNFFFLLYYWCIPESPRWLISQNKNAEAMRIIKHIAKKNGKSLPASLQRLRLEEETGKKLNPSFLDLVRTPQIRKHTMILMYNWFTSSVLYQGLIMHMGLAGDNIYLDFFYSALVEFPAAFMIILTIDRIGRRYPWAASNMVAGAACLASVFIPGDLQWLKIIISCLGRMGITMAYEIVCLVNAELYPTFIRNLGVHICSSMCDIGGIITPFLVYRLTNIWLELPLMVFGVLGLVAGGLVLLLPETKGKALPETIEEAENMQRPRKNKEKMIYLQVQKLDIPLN

OCT1 = molecular target: T3, OCT1 (Homo sapiens, UniProt O15245); test: Inhibition of model substrate uptake in OCT1-overexpressing HEK293 cells; format: cell-based; parameters: expressed in transfected cells; host or cells: HEK293; conditions: for pIC50: 2 μM ASP+ or ethambutol as model substrate
T3 sequence (O15245 1-554): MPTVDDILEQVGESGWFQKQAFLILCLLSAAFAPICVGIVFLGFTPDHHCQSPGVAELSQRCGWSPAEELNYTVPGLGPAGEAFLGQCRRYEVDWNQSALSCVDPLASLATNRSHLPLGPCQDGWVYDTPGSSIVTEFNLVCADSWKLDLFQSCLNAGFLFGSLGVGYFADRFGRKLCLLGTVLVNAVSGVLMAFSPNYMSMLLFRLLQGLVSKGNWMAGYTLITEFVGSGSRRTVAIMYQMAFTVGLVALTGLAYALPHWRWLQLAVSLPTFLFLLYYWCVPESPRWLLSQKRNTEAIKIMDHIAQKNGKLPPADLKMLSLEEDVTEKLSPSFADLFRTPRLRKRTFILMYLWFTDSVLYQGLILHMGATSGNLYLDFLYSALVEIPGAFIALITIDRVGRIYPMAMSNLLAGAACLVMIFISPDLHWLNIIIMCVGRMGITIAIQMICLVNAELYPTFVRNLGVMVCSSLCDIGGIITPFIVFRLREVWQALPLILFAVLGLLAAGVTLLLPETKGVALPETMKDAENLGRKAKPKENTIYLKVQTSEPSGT
Procedure: Koepsell and Gorbulev (University of Würzburg, Germany).
Fluorescence quantification was performed in technical duplicates.

[1] = HEK293, 5 min, read-out: (S)-Zolmitriptan inhibition [%], OCT3, 20 μM inhibitor, 2 μM (S)-zolmitriptan, 5 min
[2] = HEK293, 5 min, read-out: (S,S)-Ethambutol inhibition [%], OCT3, 20 μM inhibitor, 2 μM (S,S)-ethambutol, 5 min
[3] = HEK293, OCT3, 20 μM inhibitor, 2 μM ASP+, 5 min, read-out: ASP+ inhibition [%]
[4] = human, OCT2-overexpressing HEK293 cells, pH 7.4, probe (S,S)-ethambutol (2 μM), (S,S)-Ethambutol inhibition [%], 2 μM (S,S)-ethambutol
[5] = human, OCT2-overexpressing HEK293 cells, pH 7.4, probe ASP+ (2 μM), ASP+ inhibition [%], 2 μM ASP+
[6] = human, OCT2-overexpressing HEK293 cells, pH 7.4, probe N-ethyllidocaine (2 μM), N-Ethyllidocaine inhibition [%], 2 μM N-ethyllidocaine
[7] = human, OCT1-overexpressing HEK293 cells, pH 7.4, probe (S,S)-ethambutol (2 μM), (S,S)-Ethambutol inhibition [%], OCT1, 20 μM inhibitor, 2 μM (S,S)-ethambutol, 5 min
[8] = human, OCT1-overexpressing HEK293 cells, pH 7.4, probe ASP+ (2 μM), OCT1, 20 μM inhibitor, 2 μM ASP+, 5 min, mean of three experiments, read-out: ASP+ inhibition [%]
[9] = human, OCT1-overexpressing HEK293 cells, pH 7.4, probe sumatriptan (2 μM), OCT1, 20 μM inhibitor, 2 μM sumatriptan, 5 min, read-out: Sumatriptan inhibition [%]
[10] = OCT3, 20 μM inhibitor, 2 μM (S)-zolmitriptan, 5 min
[11] = OCT3, 20 μM inhibitor, 2 μM (S,S)-ethambutol, 5 min
[12] = OCT3, 20 μM inhibitor, 2 μM ASP+, 5 min
[13] = OCT1, 20 μM inhibitor, 2 μM (S,S)-ethambutol, 5 min
[14] = OCT1, 20 μM inhibitor, 2 μM ASP+, 5 min, mean of three experiments
[15] = OCT1, 20 μM inhibitor, 2 μM sumatriptan, 5 min

| Compound | inhibition at 20 µM (OCT3; [1]) [%] | inhibition at 20 µM (OCT3; [2]) [%] | inhibition at 20 µM (OCT3; [3]) [%] | inhibition at 5 min, 20 μM (OCT2; [4]) [%] | inhibition at 5 min, 20 μM (OCT2; [5]) [%] | inhibition at 5 min, 20 μM (OCT2; [6]) [%] | inhibition at 5 min, 20 μM (OCT1; [7]) [%] | inhibition at 5 min, 20 μM (OCT1; [8]) [%] | inhibition at 5 min, 20 μM (OCT1; [9]) [%] | ASP+ inhibition [%] (OCT3; [12]) | ASP+ inhibition [%] (OCT2; 2 μM ASP+) | N-Ethyllidocaine inhibition [%] (OCT2; 2 μM N-ethyllidocaine) | ASP+ inhibition [%] (OCT1; [14]) | Sumatriptan inhibition [%] (OCT1; [15]) | other results |
| --- | --- | --- | --- | --- | --- | --- | --- | --- | --- | --- | --- | --- | --- | --- | --- |
| CNC[C@H](O)c1cccc(O)c1 [(R)-Phenylephrine] | -2.9 | 5 | -4.1 | -8.4 | 8.2 | -1.4 | 6.3 | 3.2 | -2.8 | – | – | – | – | – | – |
| N[C@H]1CONC1=O [(S)-Cycloserine] | – | – | – | – | – | – | – | – | – | 19.3 | 14.6 | 14.6 | -2.6 | 35.9 | (S)-Zolmitriptan inhibition [%] (OCT3; [10]): 6.3%; (S,S)-Ethambutol inhibition [%] (OCT3; [11]): 12.2%; (S,S)-Ethambutol inhibition [%] (OCT2; 2 μM (S,S)-ethambutol): 0.8%; (S,S)-Ethambutol inhibition [%] (OCT1; [13]): 0.3% |
| CNCC[C@H](Oc1ccc(C(F)(F)F)cc1)c1ccccc1 [(S)-Fluoxetine] | – | – | – | – | – | – | – | – | – | – | 56.6 | 28.7 | 47.7 | 82.3 | (S)-Zolmitriptan inhibition [%] (OCT3): 13.8; (S,S)-Ethambutol inhibition [%] (OCT3): 12.3; ASP+ inhibition [%] (OCT3): -3.1; (S,S)-Ethambutol inhibition [%] (OCT2; 2 μM (S,S)-ethambutol): 6.4%; (S,S)-Ethambutol inhibition [%] (OCT1; [13]): 78.6% |
| CCC(CO)NCCNC(CC)CO [(R,S)-Ethambutol] | – | – | – | – | – | – | – | – | – | 2.6 | 26.0 | 6.8 | 4.0 | 10.2 | (S)-Zolmitriptan inhibition [%] (OCT3; [10]): -8.0% |
| CCCN[C@@H]1CCc2nc(N)sc2C1 [(R)-Pramipexole] | 13 | 23.1 | 5.3 | 10.5 | 43.3 | 37.1 | 51.6 | 19.8 | 55.8 | – | – | – | – | – | pIC50 (OCT2): 4.69; pIC50 (OCT1; OCT1, Table S5, 5 min, read-out: IC50): 4.69 |
| Cc1cccc(C)c1OC[C@H](C)N [(S)-Mexiletine] | 30 | 11.8 | -6.6 | 58.7 | 52.9 | 51.3 | 78 | 40.1 | 84.3 | – | – | – | – | – | – |
| C#CCN[C@@H]1CCc2ccccc21 [(R)-Rasagiline] | 10.3 | 13.4 | – | – | – | – | 32 | – | 42.7 | -11.8 | 51.7 | 56.7 | -1.3 | – | (S,S)-Ethambutol inhibition [%] (OCT2; 2 μM (S,S)-ethambutol): 51.3% |
| (+)-Sparteine | – | – | – | – | – | – | – | – | – | 5.2 | 112.4 | 99.9 | – | 81.6 | (S)-Zolmitriptan inhibition [%] (OCT3; [10]): 28.7%; (S,S)-Ethambutol inhibition [%] (OCT3; [11]): 32.7%; (S,S)-Ethambutol inhibition [%] (OCT1; [13]): 83.5% |
| CCN(CC)CC#CCOC(=O)[C@@](O)(c1ccccc1)C1CCCCC1 [(S)-Oxybutynine] | – | – | – | – | – | – | – | – | – | 40.5 | 92.8 | 48.6 | 59.3 | 83.5 | pIC50 (OCT3; IC50, OCT3, Table S5, 2 μM ASP+ or ethambutol as model substrate, 5 min): 4.40; (S)-Zolmitriptan inhibition [%] (OCT3; [10]): 65.2%; (S,S)-Ethambutol inhibition [%] (OCT3; [11]): 75.7%; pIC50 (OCT2): 4.70; (S,S)-Ethambutol inhibition [%] (OCT2; 2 μM (S,S)-ethambutol): 24.5%; pIC50 (OCT1; IC50, OCT1, Table S5, 5 min): 3.85; (S,S)-Ethambutol inhibition [%] (OCT1; [13]): 96.3% |
| C#CCN(C)[C@@H](C)Cc1ccccc1 [(S)-Deprenyl] | – | – | – | – | – | – | – | – | – | 9.6 | 88.0 | 47.7 | 26.1 | – | (S)-Zolmitriptan inhibition [%] (OCT3): 11.5%; (S,S)-Ethambutol inhibition [%] (OCT3): 20.9%; pIC50 (OCT2): 5.47; selectivity ratio (OCT2; human, pH 7.4): 1.4; Sumatriptan inhibition [%] (OCT1; human, pH 7.4): 68.6% |
| COc1ccccc1OCCNC[C@H](O)COc1cccc2[nH]c3ccccc3c12 [(S)-Carvedilol] | 32.8 | 49.5 | 16.3 | 8.7 | 94.9 | 48.8 | 100 | 74.5 | 96.5 | – | – | – | – | – | – |
| Cc1cccc(C)c1OC[C@@H](C)N [(R)-Mexiletine] | 25 | 11.6 | -17.2 | 52.1 | 47 | 52.2 | 79.6 | 30.4 | 85.6 | – | – | – | – | – | – |
| CCCCN1CCCCC1C(=O)Nc1c(C)cccc1C (centres unmarked) [Bupivacaine] | – | – | – | – | – | – | – | – | – | – | – | – | – | – | stereoselective inhibition of OCT3 (in words) (OCT3; ethambutol and zolmitriptan as substrates, 20 μM inhibitor): stereoselective inhibition; selectivity ratio at 5 min (OCT2; human, OCT2-overexpressing HEK293 cells, pH 7.4): 2.3; x-fold Stereoselectivity (OCT1; OCT1, ratio of the IC50 values of the two enantiomers of the drug): 1.2 fold; selectivity ratio at 5 min (OCT1; human, OCT1-overexpressing HEK293 cells, pH 7.4, OCT1, ratio of the IC50 values of the two enantiomers of the drug, read-out: x-fold Stereoselectivity): 1.8 |
| CC(C)NC[C@@H](O)COc1cccc2ccccc12 [(R)-Propranolol] | – | – | – | 25 | 47.8 | 20 | 79.9 | 44.8 | 84.3 | – | – | – | – | – | pIC50 (OCT3; OCT3, Table 1, read-out: IC50): 3.71 |
